Measurements reported in patent US10093611B2, “Benzocycloalkenes as antifungal agents” (Bayer Intellectual Property GmbH, priority 2010, dated 2018).

How the values were obtained:
Pyrenophora teres = assay: In vivo preventive test on Pyrenophora teres (barley); conditions: 500 ppm of active ingredient, evaluated 7-9 days after inoculation
Protocol: EXAMPLE F: IN VIVO PREVENTIVE TEST ON PYRENOPHORA TERES (BARLEY) Solvent: 49 parts by weight of N,N-dimethylformamide Emulsifier: 1 part by weight of Alkylarylpolyglycolether To produce a suitable preparation of active compound, 1 part by weight of active compound is mixed with the stated amounts of solvent and emulsifier, and the concentrate is diluted with water to the desired concentration. To test for preventive activity, young plants are sprayed with the preparation of active compound at the stated rate of application. One day after this treatment, the plants are inoculated with an aqueous spore suspension of Pyrenophora teres. The plants remain for 48 hours in an incubation cabinet at 22° C. and a relative atmospheric humidity of 100%. Then the plants are placed in a greenhouse at a temperature of approximately 20° C. and a relative atmospheric humidity of approximately 80%. The test is evaluated 7-9 days after the inoculation. 0% means an efficacy which corresponds to that of the untreated control while an efficacy of 100% means that no disease is observed. Under these conditions, high (at least 90%) to total protection is observed at a dose of 500 ppm of active ingredient with the following compounds from table F: […]

Leptosphaeria nodorum = assay: In vivo preventive test on Leptosphaeria nodorum (wheat); conditions: 500 ppm of active ingredient, evaluated 8 days after inoculation
Protocol: EXAMPLE D: IN VIVO PREVENTIVE TEST ON LEPTOSPHAERIA NODORUM (WHEAT) Solvent: 49 parts by weight of N,N-dimethylacetamide Emulsifier: 1 part by weight of alkylaryl polyglycol ether To produce a suitable preparation of active compound, 1 part by weight of active compound or the compound combination is mixed with the stated amounts of solvent and emulsifier, and the concentrate is diluted with water to the desired concentration. To test for protective activity, young plants are sprayed with a preparation of active compound or active compound combination at the stated rate of application. After the spray coating has dried on, the plants are sprayed with a spore suspension of Leptosphaeria nodorum. The plants remain for 48 hours in an incubation cabinet at 20° C. and a relative atmospheric humidity of 100%. The plants are placed in a greenhouse at a temperature of approximately 22° C. and a relative atmospheric humidity of approximately 80%. The test is evaluated 8 days after the inoculation. 0% means an efficacy which corresponds to that of the control, while an efficacy of 100% means that no disease is observed. Under these conditions, good (at least 75%) to total protection is observed at a dose of 500 ppm of active ingredient with the following compounds from table D: Under the same conditions, excellent protection (greater than 94%) is observed at a dose of 500 ppm of active ingredient with compound 2, whereas poor protection (less than 30%) is observed with the isosteric analogue compound CMP1 claimed in WO-2009/016218 as in table D2.

Venturia inaequalis = assay: In vivo preventive test on Venturia inaequalis (apples); conditions: 100 ppm of active ingredient, evaluated 10 days after inoculation
Protocol: (§1) EXAMPLE J: IN VIVO PREVENTIVE TEST ON VENTURIA INAEQUALIS (APPLES) Solvent: 24.5 parts by weight of acetone • 24.5 parts by weight of N,N-dimethylacetamide Emulsifier: 1 part by weight of alkylaryl polyglycol ether To produce a suitable preparation of active compound, 1 part by weight of active compound is mixed with the stated amounts of solvent and emulsifier, and the concentrate is diluted with water to the desired concentration. To test for preventive activity, young plants are sprayed with the preparation of active compound at the stated rate of application. After the spray coating has dried on, the plants are inoculated with an aqueous conidia suspension of the causal agent of apple scab (Venturia inaequalis) and then remain for 1 day in an incubation cabinet at approximately 20° C. and a relative atmospheric humidity of 100%. The plants are then placed in a greenhouse at approximately 21° C. and a relative atmospheric humidity of approximately 90%. The test is evaluated 10 days after the inoculation. 0% means an efficacy which corresponds to that of the untreated control, while an efficacy of 100% means that no disease is observed. Under these conditions, total protection is observed at a dose of 100 ppm of active ingredient with the following compounds from table J: […]

Sphaerotheca fuliginea = assay: In vivo preventive test on Sphaerotheca fuliginea (cucumbers); conditions: 100 ppm of active ingredient, evaluated 7 days after inoculation
Protocol: EXAMPLE H: IN VIVO PREVENTIVE TEST ON SPHAEROTHECA FULIGINEA (CUCUMBERS) Solvent: 24.5 parts by weight of acetone • 24.5 parts by weight of N,N-dimethylacetamide Emulsifier: 1 part by weight of alkylaryl polyglycol ether To produce a suitable preparation of active compound, 1 part by weight of active compound is mixed with the stated amounts of solvent and emulsifier, and the concentrate is diluted with water to the desired concentration. To test for protect activity, young plants are sprayed with the preparation of active compound at the stated rate of application. After the spray coating has dried on, the plants are inoculated with an aqueous spore suspension of Sphaerotheca fuliginea. The plants are then placed in a greenhouse at approximately 23° C. and a relative atmospheric humidity of approximately 70%. The test is evaluated 7 days after the inoculation. 0% means an efficacy which corresponds to that of the untreated control, while an efficacy of 100% means that no disease is observed. Under these conditions, high (at least 90%) to total protection is observed at a dose of 100 ppm of active ingredient with the following compounds from table H: Under the same conditions, high protection (greater than 80%) is observed at a dose of 500 ppm of active ingredient with compound 7, whereas poor protection (less than 20%) is observed with the isosteric analogue compound CMP2 claimed in WO-2009/016218 as in table H2.

Uromyces appendiculatus = assay: In vivo preventive test on Uromyces appendiculatus (beans); conditions: 100 ppm of active ingredient, evaluated 10 days after inoculation
Protocol: as §1, with “I:” for “J:”, “UROMYCES APPENDICULATUS (BEANS)” for “VENTURIA INAEQUALIS (APPLES)”, “spore” for “conidia”, “bean rust (Uromyces appendiculatus)” for “apple scab (Venturia inaequalis)”, “conditions, excellent (at least 95%) to” for “conditions,”

| Structure (SMILES) | Efficacy (Pyrenophora teres) [%] | Efficacy (Leptosphaeria nodorum) [%] | Efficacy (Venturia inaequalis) [%] | Efficacy (Sphaerotheca fuliginea) [%] | Efficacy (Uromyces appendiculatus) [%] |
| --- | --- | --- | --- | --- | --- |
| Cc1nn(C)c(F)c1C(=O)N(C1CC1)C(C)C1Cc2ccccc2C1 (stereo not shown) [Example 11] | 100 | 100 | 100 | 92 | 100 |
| CCc1nn(C)c(F)c1C(=O)N(C1CC1)C(C)C1Cc2ccccc2C1 (stereo not shown) [Example 12] | 100 | 100 | 100 | 95 | 100 |
| CC(C1Cc2ccccc2C1)N(C(=O)c1cn(C)nc1C(F)F)C1CC1 (stereo not shown) [Example 13] | 100 | 100 | 100 | 95 | 98 |
| CC(C1Cc2ccccc2C1)N(C(=O)c1c(C(F)F)nn(C)c1F)C1CC1 (stereo not shown) [Example 14, N-cyclopropyl-3-(difluoromethyl)-N-[1-(indan-2-yl)ethyl]-5-fluoro-1-methyl-1H-pyrazole-4-carboxamide] | 100 | 100 | 100 | 100 | – |
| CC(C1CCc2ccccc2C1)N(C(=O)c1c(C(F)F)nn(C)c1F)C1CC1 (stereo not shown) [Example 16] | 100 | 86 | 100 | 100 | – |
| CCC(C1CCc2ccccc2C1)N(C(=O)c1c(C(F)F)nn(C)c1F)C1CC1 (stereo not shown) [Example 17] | 100 | 80 | – | – | – |
